Data: patent US4293483A, “Derivatives of A-30912A nucleus” (priority 1980, dated 1981)
In brackets after ≈: the same amount, converted by molar mass. Several values for one entry are separate records, joined by “and”; a condition that tells them apart may be missing. Equal values may be shown once. Read-outs that look alike come from different tables or passages of the source. Numbered stars: 1 amine (or outer) side, 2 acyl side, 3 side chain; on linkers, the order of the positions; unused ones are H or OH. Bridge positions count the residues as written; N and C are the ends. Square brackets hold non-standard residues; d marks the D form. Peptide text beside a SMILES is read from it. * marks the point of attachment. Orn(4R-OH,5R-OH) = O=C([C@H](C[C@@H](O)[C@@H](O)N[*:3])N[*:1])[*:2]; hTyr(3S-OH,4S-OH) = N[C@H](C(=O)O)[C@H](O)[C@@H](O)c1ccc(O)cc1; Pro(3S-OH,4S-Me) = C[C@H]1CN[C@H](C(=O)O)[C@H]1O; X1 = O=C(c1cc(I)c(N[*:1])c(I)c1)[*:2]; X6 = O=C(C=Cc1ccc(N[*:1])cc1)[*:2]; Hyp = O=C(O)[C@@H]1C[C@@H](O)CN1; Lauroyl = CCCCCCCCCCCC(=O)*; 4Abz = Nc1ccc(C(=O)O)cc1; Aun = NCCCCCCCCCCC(=O)O; Ava = NCCCCC(=O)O

Legend:
Neurospora Crassa 846 = assay: Agar plate disc diffusion test, zone of inhibition; assay type: cell-based; conditions: 7 mm disc; for zone of inhibition at 1000 µg/mL: Neurospora crassa
Description: (§3) ^(a) Compounds were tested as suspension in methanol.
(§4) were tested at a concentration of 1 mg/ml by a dipping 7mm disc into the
(§5) suspension and placing it on the agar surface. Incubation: 24-48 hours at

[1] = test system: Saccharomyces pastorianus X-52; assay: Agar plate disc diffusion test, zone of inhibition; assay type: cell-based; conditions: 1 mg/ml suspension in methanol, 7 mm disc, 24-48 hours at 25-37° C.; for zone of inhibition at 1000 µg/mL: Saccharomyces pastorianus, X52, 48 h
Description: as §3, §4, §5

[2] = test system: Trychophyton mentagrophytes #6; assay: Agar plate disc diffusion test, MIC per disc; assay type: cell-based; conditions: 0.01M sodium borate, pH 7.5, 24 hours at 30° C.
Description: (§6) *Compounds were suspended in 0.01M sodium borate solution, pH 7.5.
(§7) compounds were tested at 20 μg/disc at top level and at twofold
(§8) dilutions until end points were reached.

Candida albicans A-26 [3] = assay: Therapeutic activity against Candida albicans A-26 infection in mice; assay type: in vivo; conditions: A26, sc
Description: The results of in vivo tests to evaluate the effectiveness of the compound of Examples 61-81, 86 and 88 against an infection caused by Candida albicans A-26 in mice are given in Table 7, where activity is measured by the ED50 value (the dose in mg/kg. required to cure 50% of the test animals). Where an ED50 value was not obtained, activity is indicated by the lowest dose at which a significant anti-fungal effect is observed. In this test, groups of male albino mice (specific pathogen free), weighing 18 to 20 grams, are infected intravenously with Candida albicans A-26. The animals are X-irradiated 24 hours prior to infection at about 50 roentgens per minute for 8 minutes (400 total dose) to reduce immune responses to the infecting organism. At 0, 4, and 24 hours post infection each group of mice is given graded doses subcutaneously of the test compound as a suspension in 33% polyethylene glycol-water. The day of death for each animal is recorded.
*Dosage Schedule: 40, 20, 15, and 10 mg/kg. Dosages given 0, 4, and 24
hours post injection as suspension of test compound in 30% PEGH2 O.
Number of mice receiving test compounds at each dosage level: 6 mice per
group. Number of mice in control (untreated) group: 10 mice per group.
**As measured by increase in survival time of treated animals versus
control, calculated by method of Reed V. Mueuch, American J. Hygiene, 493

[4] = test system: Trichophyton mentagrophytes; assay: Agar plate disc diffusion test, zone of inhibition; assay type: cell-based
Description: as §3, §4, §5

Candida albicans A-26 [5] = assay: Agar plate disc diffusion test, MIC per disc; assay type: cell-based; conditions: 0.01M sodium borate, pH 7.5, 24 hours at 30° C.
Description: as §6, §7, §8

in vivo = conditions: mouse, po, 416 mg/kg
Description: (§9) In this test, mice are gavaged with a dose of 416 mg/kg of the test compound suspended in 33% PEG 400-water. At time intervals, blood samples are taken from the orbital sinus and are assayed for antibiotic activity as follows: A 7 mm. disc containing 20 μl of whole blood is placed on agar seeded with Aspergillus montevidensis A35137. After 40 hours incubation at 30° C. zones of inhibition from the blood samples are compared to a standard obtained from the test compound, and the amount of compound in the blood sample is calculated.

Candida albicans A-26 [6] = assay: Agar plate disc diffusion test, zone of inhibition; assay type: cell-based; conditions: 7 mm disc; for Size of Zone of Inhibition: 1 mg/ml suspension in methanol, 24-48 hours at 25-37° C., no regrowth mark
Description: as §3, §4, §5

Candida albicans A26 = assay: Agar dilution assay; assay type: cell-based
Description: (§1) Tables 4 and 5 give the results of the testing in vitro of the compounds of Examples 61-81 by agar-plate disc-diffusion methods. In Table 4 activity is measured by the size (diameter in mm.) of the observed zone of inhibition of the microorganism produced by the test compound. In Table 5, activity is measured by the minimal inhibitory concentration (MIC) of the substance (μg/disc) required to inhibit growth of the test organism. Table 6 gives the results of the testing in vitro of the N-(n-dodecanoyl)-p-aminobenzoyl derivative of A30912A nucleus (Formula III, R^1 is N-(dodecanoyl)-p-aminobenzoyl) against five strains of Candida albicans by the agar dilution method. In Table 6 activity is measured by the minimal inhibitory concentration (MIC) of the substance (μg/ml) required to inhibit the test organism.
(§2) In vitro activity of the N-(n-dodecanoyl)-p-aminobenzoyl (Example 64) and the N-(n-dodecanoyl)-5-amino-n-pentanoyl (Example 62) derivatives of A-30912A nucleus against 5 strains of Candida albicans by the agar dilution assay.

Candida albicans SBH 29 = assay: Agar dilution assay; assay type: cell-based
Description: as §1, §2

Candida albicans SBH 31 = assay: Agar dilution assay; assay type: cell-based
Description: as §1, §2

Candida albicans SBH 16 = assay: Agar dilution assay; assay type: cell-based
Description: as §1, §2

Candida albicans SBH 28 = assay: Agar dilution assay; assay type: cell-based
Description: as §1, §2

[7] = mouse, in vivo, 416 mg/kg, 240 min
Description: as §9

[8] = Blood levels after oral administration in mice; conditions: mouse, in vivo, po, 416 mg/kg
Description: as §9

[9] = Toxicity in dog on intravenous administration; assay type: in vivo; conditions: 100 mg/kg per day for five days
[10] = CRASSA846, Neurospora Crassa 846, 1 mg/ml, * measurable zone of inhibition with regrowth of organism around disc, read-out: Size of Zone of Inhibition (*)
[11] = Saccharomyces pastorianus X-52, read-out: Size of Zone of Inhibition
[12] = subcutaneous at 0, 4 and 24 hours post infection, dose to cure 50% of test animals, by increase in survival time, read-out: ED50
[13] = subcutaneous at 0, 4 and 24 hours post infection, lowest dose with significant anti-fungal effect, read-out: Lowest Active Dose
[14] = 1 mg/ml, 7 mm disc, * measurable zone of inhibition with regrowth of organism around disc, read-out: Size of Zone of Inhibition (*)
[15] = 48 h, 1 mg/ml suspension in methanol, 7 mm disc, 24-48 hours at 25-37° C., no regrowth mark, read-out: Size of Zone of Inhibition
[16] = 1 mg/ml, 7 mm disc, * measurable zone of inhibition with regrowth of organism around disc

Row | SMILES | zone of inhibition at 1000 µg/mL (Neurospora Crassa 846; [10]) [mm] | zone of inhibition at 1000 µg/mL [1, 11] [mm] | MIC [2] [μg/disc] | ED50 (Candida albicans A-26 [3]; [12]) [mg/kg] | minimal effective dose (Candida albicans A-26 [3]; [13]) [mg/kg] | zone of inhibition at 1000 µg/mL [4, 14] [mm] | MIC (Candida albicans A-26 [5]) | concentration at 4 h (in vivo) [ng/mL] | Size of Zone of Inhibition (Candida albicans A-26 [6]) | Blood Levels [7] [ng/mL] | zone of inhibition at 1000 µg/mL [4, 15] [mm] | Size of Zone of Inhibition ([1]; Saccharomyces pastorianus X-52) [mm] | Size of Zone of Inhibition (*) [4, 16] [mm] | further results
1 | CCCCCCCCCCCC(=O)Nc1ccc(C=CC(=O)N[C@H]2C[C@@H](O)[C@@H](O)NC(=O)[C@@H]3[C@@H](O)[C@@H](C)CN3C(=O)[C@H]([C@@H](C)O)NC(=O)[C@H]([C@H](O)[C@@H](O)c3ccc(O)cc3)NC(=O)[C@@H]3C[C@@H](O)CN3C(=O)[C@H]([C@@H](C)O)NC2=O)cc1 [Example 73] (Lauroyl-[X6][Orn(4R-OH,5R-OH)]T[Hyp][hTyr(3S-OH,4S-OH)]T[Pro(3S-OH,4S-Me)]; lactam 2-C) | 29 | 17 | < 0.039 | 24 | 20 | 24 | 1.25 μg/disc | 1310 |  |  |  |  |  | Size of Zone of Inhibition (*) (Candida albicans A-26 [6]; 1 mg/ml, * measurable zone of inhibition with regrowth of organism around disc): 60 mm
2 | CCCCCCCCCCCC(=O)NCCCCC(=O)N[C@H]1C[C@@H](O)[C@@H](O)NC(=O)[C@@H]2[C@@H](O)[C@@H](C)CN2C(=O)[C@H]([C@@H](C)O)NC(=O)[C@H]([C@H](O)[C@@H](O)c2ccc(O)cc2)NC(=O)[C@@H]2C[C@@H](O)CN2C(=O)[C@H]([C@@H](C)O)NC1=O [Example 62, N-(n-dodecanoyl)-5-amino-n-pentanoyl derivative of A-30912A nucleus] ({Lauroyl-Ava}-[Orn(4R-OH,5R-OH)]T[Hyp][hTyr(3S-OH,4S-OH)]T[Pro(3S-OH,4S-Me)]; lactam 1-C) | 27 | 15 | 0.078 | 22 | 20 | 60 | 1.25 μg/disc |  | 25 mm | 0 |  |  |  | MIC (Candida albicans A26; agar dilution, strain A26, read-out: MIC): 1.25 µg/mL (≈ 1.16 µM); MIC (Candida albicans SBH 29; SBH29, agar dilution, strain SBH 29, read-out: MIC): 2.5 µg/mL (≈ 2.32 µM); MIC (Candida albicans SBH 31; SBH31, agar dilution, strain SBH 31, read-out: MIC): 2.5 µg/mL (≈ 2.32 µM); MIC (Candida albicans SBH 16; SBH16, agar dilution, strain SBH 16, read-out: MIC): 2.5 µg/mL (≈ 2.32 µM); MIC (Candida albicans SBH 28; SBH28, agar dilution, strain SBH 28, read-out: MIC): 2.5 µg/mL (≈ 2.32 µM)
3 | CCCCCCCCCCCC(=O)Nc1c(I)cc(C(=O)N[C@H]2C[C@@H](O)[C@@H](O)NC(=O)[C@@H]3[C@@H](O)[C@@H](C)CN3C(=O)[C@H]([C@@H](C)O)NC(=O)[C@H]([C@H](O)[C@@H](O)c3ccc(O)cc3)NC(=O)[C@@H]3C[C@@H](O)CN3C(=O)[C@H]([C@@H](C)O)NC2=O)cc1I [Example 68] (Lauroyl-[X1][Orn(4R-OH,5R-OH)]T[Hyp][hTyr(3S-OH,4S-OH)]T[Pro(3S-OH,4S-Me)]; lactam 2-C) | 30 | 17 | 0.078 | > 40 | 40 |  | 1.25 μg/disc | 340 | 25 mm |  | 60 |  |  | 
4 | CCCCCCCCCCCC(=O)Nc1ccc(C(=O)N[C@H]2C[C@@H](O)[C@@H](O)NC(=O)[C@@H]3[C@@H](O)[C@@H](C)CN3C(=O)[C@H]([C@@H](C)O)NC(=O)[C@H]([C@H](O)[C@@H](O)c3ccc(O)cc3)NC(=O)[C@@H]3C[C@@H](O)CN3C(=O)[C@H]([C@@H](C)O)NC2=O)cc1 [Example 64, N-(n-dodecanoyl)-p-aminobenzoyl derivative of A-30912A nucleus] ({Lauroyl-4Abz}-[Orn(4R-OH,5R-OH)]T[Hyp][hTyr(3S-OH,4S-OH)]T[Pro(3S-OH,4S-Me)]; lactam 1-C) |  |  |  |  |  |  | 0.625 μg/disc and 1.25 μg/disc |  | 23 mm and 19 mm |  |  | 17 | 56 | Size of Zone of Inhibition (*) (Neurospora Crassa 846; Neurospora Crassa 846, 1 mg/ml, * measurable zone of inhibition with regrowth of organism around disc): 35 mm; zone of inhibition at 1000 µg/mL (Neurospora Crassa 846; CRASSA846, read-out: Size of Zone of Inhibition (*), Neurospora Crassa 846, 1 mg/ml, * measurable zone of inhibition with regrowth of organism around disc): 33 mm; zone of inhibition at 1000 µg/mL ([1]; read-out: Size of Zone of Inhibition, Saccharomyces pastorianus X-52): 21 mm; concentration at 4 h [8]: 830 ng/mL; ED50 (Candida albicans A-26 [3]): 15 mg/kg; minimal effective dose (Candida albicans A-26 [3]; read-out: Lowest Active Dose, subcutaneous at 0, 4 and 24 hours post infection, lowest dose with significant anti-fungal effect): 10 mg/kg; zone of inhibition at 1000 µg/mL ([4]; read-out: Size of Zone of Inhibition (*), Trichophyton mentagrophytes, 1 mg/ml, 7 mm disc, * measurable zone of inhibition with regrowth of organism around disc): 55 mm; MIC (Candida albicans A26; A26): 0.312 µg/mL (≈ 0.284 µM); MIC (Candida albicans SBH 29; SBH29): 0.625 µg/mL (≈ 0.569 µM); MIC (Candida albicans SBH 31; SBH31): 0.625 µg/mL (≈ 0.569 µM); MIC (Candida albicans SBH 16; SBH16): 0.625 µg/mL (≈ 0.569 µM); MIC (Candida albicans SBH 28; SBH28): 0.625 µg/mL (≈ 0.569 µM); SGPT levels [9]: increased SGPT levels were observed; outward signs of toxicity [9]: no outward signs of toxicity
5 | CCCCCCCCCCCC(=O)NCCCCCCCCCCC(=O)N[C@H]1C[C@@H](O)[C@@H](O)NC(=O)[C@@H]2[C@@H](O)[C@@H](C)CN2C(=O)[C@H]([C@@H](C)O)NC(=O)[C@H]([C@H](O)[C@@H](O)c2ccc(O)cc2)NC(=O)[C@@H]2C[C@@H](O)CN2C(=O)[C@H]([C@@H](C)O)NC1=O [Example 63] ({Lauroyl-Aun}-[Orn(4R-OH,5R-OH)]T[Hyp][hTyr(3S-OH,4S-OH)]T[Pro(3S-OH,4S-Me)]; lactam 1-C) | 28 | 15 | 0.156 | > 40 | > 40 | 55 | 2.5 μg/disc and 1.25 μg/disc | 400 | 24 mm and 25 mm | 0 | 56 | 18 | 63 | Size of Zone of Inhibition (Neurospora Crassa 846; Neurospora Crassa 846, 1 mg/ml suspension in methanol, 24-48 hours at 25-37° C., no regrowth mark): 28 mm; zone of inhibition at 1000 µg/mL (Neurospora Crassa 846; CRASSA846, 48 h, Neurospora Crassa 846, 1 mg/ml suspension in methanol, 24-48 hours at 25-37° C., no regrowth mark, read-out: Size of Zone of Inhibition): 35 mm
